Experimental data published in ChEMBL document CHEMBL1201862, “PubChem BioAssay data set” (2004).
Calls of active or inactive are those of the source. No stated cut-off is given here; in the data, actives have a measured IC50 and inactives only a lower limit.

Biological target: Envelope glycoprotein gp160 (Human immunodeficiency virus 1, UniProt Q6QLK5)
Assay: inhibitors of HIV fusion peptide binding, primary screen, biochemical, uHTS, fluorescence dequenching (AID 1986)

Chain of Envelope glycoprotein gp160 (Q6QLK5 whole entry, the tested form may be a part): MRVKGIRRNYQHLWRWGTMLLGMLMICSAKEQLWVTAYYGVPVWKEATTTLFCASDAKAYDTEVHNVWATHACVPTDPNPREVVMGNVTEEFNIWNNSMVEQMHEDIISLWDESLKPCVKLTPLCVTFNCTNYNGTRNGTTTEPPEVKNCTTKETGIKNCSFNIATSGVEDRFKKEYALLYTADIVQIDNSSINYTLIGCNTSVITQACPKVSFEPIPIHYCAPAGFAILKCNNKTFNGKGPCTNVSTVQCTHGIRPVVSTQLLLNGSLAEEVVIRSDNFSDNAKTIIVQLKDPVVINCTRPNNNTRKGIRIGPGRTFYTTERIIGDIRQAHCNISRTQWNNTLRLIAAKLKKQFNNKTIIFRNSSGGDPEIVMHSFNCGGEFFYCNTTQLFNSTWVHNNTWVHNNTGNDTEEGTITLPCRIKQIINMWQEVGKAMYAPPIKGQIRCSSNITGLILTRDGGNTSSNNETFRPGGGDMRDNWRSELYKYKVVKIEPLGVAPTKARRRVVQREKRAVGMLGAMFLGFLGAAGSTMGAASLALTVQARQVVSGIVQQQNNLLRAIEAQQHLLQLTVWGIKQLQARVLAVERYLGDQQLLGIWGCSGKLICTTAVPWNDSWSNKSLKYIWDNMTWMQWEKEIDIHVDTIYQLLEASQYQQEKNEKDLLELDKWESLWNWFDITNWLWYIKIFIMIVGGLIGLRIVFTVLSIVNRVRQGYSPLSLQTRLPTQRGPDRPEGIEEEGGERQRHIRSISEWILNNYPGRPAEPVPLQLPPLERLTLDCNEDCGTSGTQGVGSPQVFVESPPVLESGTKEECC

CCc1ccc(/C=C2\SC(=S)N(CCCC(=O)Nc3ccccc3C(=O)O)C2=O)cc1
IC50: 12.4 µM (active)

COc1cc(/C=C(\C#N)c2nc3cc(C)ccc3[nH]2)cc([N+](=O)[O-])c1O
IC50: 18.7 µM (active)

CCOc1ccc(C2C(C(=O)Nc3ccccc3)=C(C)N=c3s/c(=C/c4cccc(OCC(=O)O)c4)c(=O)n32)cc1 (stereo not drawn)
IC50: 28.8 µM (active)
